Assay results published in article PMC4500165 (Pure and applied chemistry. Chimie pure et appliquee, 2013).

Molecular target: T1, peanut agglutinin (PNA) (Arachis hypogaea, UniProt P02872)
T1 sequence (P02872 24-273): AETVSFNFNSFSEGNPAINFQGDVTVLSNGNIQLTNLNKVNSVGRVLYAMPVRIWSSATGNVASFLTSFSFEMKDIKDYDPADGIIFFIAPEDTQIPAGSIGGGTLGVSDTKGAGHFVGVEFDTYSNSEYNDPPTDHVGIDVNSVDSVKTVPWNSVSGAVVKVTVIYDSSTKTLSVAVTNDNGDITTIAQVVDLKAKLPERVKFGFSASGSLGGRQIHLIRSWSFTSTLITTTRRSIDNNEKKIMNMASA
Assay: isothermal titration calorimetry, one-site model
Type: binding

- Kd: 549 µM
Structure (SMILES): [N-]=[N+]=Nc1c(F)c(F)c(C(=O)NCCOCCOCCS[C@@H]2O[C@H](CO)[C@@H](O[C@@H]3O[C@H](CO)[C@H](O)[C@H](O)[C@H]3O)[C@H](O)[C@H]2O)c(F)c1F [compound 5, 2-(2-(2-(4-Azido-2,3,5,6-tetrafluorobenzamido)ethoxy)ethoxy)ethyl 4-O-β-D-galactopyranosyl-1-thio-β-D-glucopyranoside]
